Experimental data published in patent US8187822B2, “Methods to identify modulators” (Givaudan S.A., priority 2007, dated 2012).
One block for each molecule: values may come before it.

Key:
Format in all cases: cell-based
[1] = target: T1, TAS2R44 (Homo sapiens, UniProt P59538, L162M); assay: Fluo-4 calcium assay, HEK293T cells expressing Gα16-gustducin44 and TAS2R44
T1 construct: RSS tag (first 45 amino acids of rat somatostatin receptor subtype 3, plus EcoRI site) (N); expressed in transfected cells
T1 sequence (P59538 with tags, fused parts or gaps L162M): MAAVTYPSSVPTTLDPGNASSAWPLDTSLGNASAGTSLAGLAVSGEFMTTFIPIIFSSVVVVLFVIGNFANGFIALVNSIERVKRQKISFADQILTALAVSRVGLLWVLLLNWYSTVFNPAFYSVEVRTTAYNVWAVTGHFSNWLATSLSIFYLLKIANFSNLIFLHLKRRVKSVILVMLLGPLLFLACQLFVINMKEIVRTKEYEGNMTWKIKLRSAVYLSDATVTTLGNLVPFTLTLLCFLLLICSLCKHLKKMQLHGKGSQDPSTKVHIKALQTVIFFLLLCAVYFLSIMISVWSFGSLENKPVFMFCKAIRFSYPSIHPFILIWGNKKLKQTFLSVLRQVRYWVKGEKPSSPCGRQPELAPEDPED
Experimental: Cell lines that stably expresses a SABR (TAS2R44, TAS2R1, TAS2R10) was generated by transfecting pcDNA3.1Zeo-SABR into HEK293T/Gα16-gustducin 44 cells (both formed as described in example 1). The host cell line HEK-293T is commercially available from the American Tissue Culture Collection (ATCC), ATCC®# CRL-11268.
The expression of TAS2R44 was evaluated by testing for the presence of a functional response to the known TAS2R44 agonist saccharin (as described in WO 2004/029087) in addition to sucralose, which was determined via automated calcium imaging on the FLIPR-TETRA™ (Molecular Devices, Sunnyvale, Calif., US) as described in example 3. One clone was selected resulting in the HEK293T/Gα16-gustducin 44/TAS2R44 cell line.
Fluo-4AM (Invitrogen, Carlsbad, Calif., US) is a fluorescent indicator of intracellular calcium dynamics (change in concentration) and allows monitoring changes in the calcium concentration, particularly an increase in response to receptor activation occurring after agonist exposure.
(§1) At day 0, the HEK293T cell line expressing Gα16-gustducin44 and a TAS2R bitter taste receptor formed as described in examples 2b or 2c was seeded in antibiotic-free growth medium (standard DMEM with 10% (v/v) heat-inactivated fetal bovine serum, 2 mM L-glutamine[…]) into black wall/clear bottom 96-well plates, coated with poly(ethylenimine) (0.005% v/v) at a concentration of 15,000 cells per well and incubated for 48 hours in humidified atmosphere (37° C., 5% CO2).
(§2) At the time of the assay, the growth medium was discarded and the cells were in humidified atmosphere (37° C., 5% CO2) for 1 hour with 50 μl of loading buffer consisting of 1.5 μM Fluo-4 AM and […] probenicid (Sigma-Aldrich, St. Louis, Mo., US) in DMEM.
(§3) Afterwards, the 96-well plate was washed 5 times with 100 μl of assay buffer (130 mM NaCl, 5 mM KCl, 10 mM HEPES, 2 mM CaCl2, and 5 mM dextrose, pH 7.4) per well, using an automated plate washer (BioTek). The plate was further incubated for 30 minutes at room temperature in the dark to allow for complete de-esterification of the Fluo-4. Afterwards the plate was washed 5 times with 100 μl of assay buffer per well, and reconstituted with 100 μl of assay buffer per well.
(§4) For assay reading, the plate was placed in a Fluorometric Imaging Plate Reader (FLIPR) (FLIPR-TETRA™, Molecular Devices, Sunnyvale, Calif., US), and receptor activation was initiated by addition of 100 μl of a twofold concentrated agonist stock solution (to give the desired agonist end concentration when added to the 100 microliter assay buffer volume), which was prepared in assay buffer.
(§5) Fluorescence was continuously monitored for 20 seconds to give a signal baseline (averaged to give F0) prior to agonist addition and for 120 seconds after agonist addition. The change in signal divided by F0 gives ΔF/F0 indicated in the table, with ΔF being the maximum signal occurring within the 120 seconds minus the minimum signal (occurring within the 120 seconds after agonist addition.
(§6) All data was collected from at least two independent experiments each carried out in triplicate.
(§7) A concentration-response analysis was performed and EC50 values were calculated by nonlinear regression using the function f(x)=(a−d)/(1+(x/C)^nh)+d; with a=minimum signal, d=maximum signal, nh=hill coefficient, C=EC50, and x=agonist concentration. EC50 is the molar concentration of an agonist which produces 50% of the maximum possible effective response for that agonist.
The obtained calcium signals were corrected for the response of cells expressing only the G Protein α subunit (Gα16-gustducin44) and normalized to the fluorescence of cells prior to the stimulus using ΔF/F0 (Fmax−Fmin/F0). […]

[2] = target: T2, TAS2R16 (Homo sapiens, UniProt Q9NYV7); assay: Fluo-4 calcium assay, cells expressing TAS2R16 (control of antagonist specificity)
T2 construct: The full length gene of human TAS2R44 was amplified by polymerase chain reaction (PCR) using gene-specific primers that span the entire coding region; RSS tag (first 45 amino acids of rat somatostatin receptor subtype 3) (N); expressed in transfected cells; host or cells: HEK293T cells expressing Gα16-gustducin44
T2 sequence (Q9NYV7 1-291): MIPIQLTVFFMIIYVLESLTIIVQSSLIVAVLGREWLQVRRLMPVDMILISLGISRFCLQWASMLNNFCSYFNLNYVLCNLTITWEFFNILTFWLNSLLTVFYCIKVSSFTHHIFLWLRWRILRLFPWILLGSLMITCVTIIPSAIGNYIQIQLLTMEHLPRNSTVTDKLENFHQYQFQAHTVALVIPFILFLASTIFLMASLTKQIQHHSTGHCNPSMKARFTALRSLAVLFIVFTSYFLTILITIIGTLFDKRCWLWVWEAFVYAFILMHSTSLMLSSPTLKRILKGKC
Experimental: as §1, §2, §3, §4, §5, §6, §7
(§8) The obtained calcium signals were corrected for the response of cells expressing only the G Protein α subunit (Gα16-gustducin44) and normalized to the fluorescence of cells prior to the stimulus using ΔF/F0 (Fmax−Fmin/F0).
All cells were HEK293T cells stably expressing Gα16-gustducin44, or expressing Gα16-gustducin44 and a TAS2R receptor (TAS2R44, TAS2R16).
The method was carried out as described in example 3 subject to the following modifications: The samples were tested with and without test compound A (test cpd A) and the signals were compared. The test compound was dissolved in dimethylsulfoxide (DMSO), and a negative control with equivalent DMSO concentration (0.02%) was performed accordingly to exclude a potential inhibitory effect of the solvent.
As a control of antagonist specificity, the response of an unrelated bitter taste receptor (TAS2R16) to its agonist phenyl-β-glucopyranosides is also detected (see results in table 8 herein below).

[3] = system: cells expressing only Gα16gustducin44 but no TAS2 receptor; assay: Fluo-4 calcium assay, negative control cells without bitter receptor
Experimental: HEK293T/Gα16-gustducin 44 cells were used; they are formed as described in WO 2004/055048. The host cell line HEK-293T is commercially available from the American Tissue Culture Collection (ATCC), ATCC®# CRL-11268
as §1, §2, §3, §4, §5, §8
To confirm that the cell line formed in example 2c stably expresses the bitter taste receptor TAS2R44, a concentration-response curve for saccharin, a known agonist of TAS2R44, was generated. […] The standard deviation (+/−STD) is also indicated.
As a negative control to determine unspecific signals, each of the applied concentrations of sucralose was applied to cells expressing only Gα16gustducin44.
As a negative control, each agonist and each agonist with the antagonist/test compound (test cpd A) is applied to cells expressing only Gal 6gustducin44 but no TAS2 receptor (see results in table 7 herein below).

- agonist activity at TAS2R44 (calcium signaling), in words ([1]; cells stably expressing human TAS2R44): not to be agonists for TAS2R44
SMILES: COC(=O)[C@H](Cc1ccccc1)NC(=O)[C@@H](N)CC(=O)O [aspartame]

- P-β-G ΔF/F0 ([2]; P-β-G alone 0.0391 mM): 0.012
- P-β-G ΔF/F0 ([2]; P-β-G alone 0.0781 mM): 0.213
- P-β-G ΔF/F0 ([2]; P-β-G alone 0.1563 mM): 0.926
- P-β-G ΔF/F0 ([2]; P-β-G alone 0.3125 mM): 1.810
- P-β-G ΔF/F0 ([2]; P-β-G alone 0.6250 mM): 2.284
- P-β-G ΔF/F0 ([2]; P-β-G alone 1.2500 mM): 2.361
- P-β-G ΔF/F0 ([2]; P-β-G alone 2.5000 mM): 2.578
- P-β-G ΔF/F0 ([2]; P-β-G alone 5.0000 mM): 2.693
- P-β-G ΔF/F0 ([2]; P-β-G alone 10.0000 mM): 2.876
- EC50 ([2]; agonist P-β-G alone, TAS2R16): 210 ± 20 µM
SMILES: OC[C@H]1O[C@@H](Oc2ccccc2)[C@H](O)[C@@H](O)[C@@H]1O [P-β-G, phenyl-β-glucopyranoside]

- effect on the response of TAS2R16 to phenyl-β-glucopyranoside, in words ([2]; test compound at 25 μM): did not effect the response
- effect on the response of TAS2R44 to sucralose, in words ([1]; test compound at 25 μM): had no effect
SMILES: CC1CCC(CCCC(N)=O)C1(C)C (stereo not drawn) [test cpd B, 4-(2,2,3-trimethylcyclopentyl)butanamide]
- response in cells not expressing TAS2R44 (negative control), in words ([3]; test compound at 25 μM): did not elicit a response

SMILES: O=C1NS(=O)(=O)c2ccccc21 [Saccharin, saccharin]
- signal in negative control, in words ([3]; host cells expressing only Gα16-gustducin44): did not show any significant change in signal
- Neg. Control ΔF/F0 ([3]; saccharin 0.0391 mM): 0.016
- Neg. Control ΔF/F0 ([3]; saccharin 0.0781 mM): 0.014
- Neg. Control ΔF/F0 ([3]; saccharin 0.1563 mM): 0.014
- Neg. Control ΔF/F0 ([3]; saccharin 0.3125 mM): 0.012
- Neg. Control ΔF/F0 ([3]; saccharin 0.6250 mM): 0.014
- Neg. Control ΔF/F0 ([3]; saccharin 1.2500 mM): 0.014
- Neg. Control ΔF/F0 ([3]; saccharin 2.5000 mM): 0.013
- Neg. Control ΔF/F0 ([3]; saccharin 5.0000 mM): 0.018
- Neg. Control ΔF/F0 ([3]; saccharin 10.0000 mM): 0.020
